Data reported in paper PMC9599704, “Liposomal Entrapment or Chemical Modification of Relaxin2 for Prolongation of Its Stability and Biological Activity” (Biomolecules, 2022).

Assay: in vitro
Description: Samples were placed separately in hermetically sealed screw-tubes (to avoid evaporation) and then in an orbital incubator (Stuart S1500, UK) set at 50 rpm and 37 °C, for a period of up to 30 d. […] For quantification of free or liposomal peptides in the presence of 80% FBS, serum proteins precipitation was accomplished by mixing one volume of sample (100 μL) with three volumes (300 μL) of acidified isopropanol (with 0.1% TFA), followed by vortex agitation and centrifugation at 15000 rpm for 15 min. Next, the supernatant was transferred to a new eppendorf tube and 400 μL of HEPES (pH 5.0) were added, followed by vigorous vortex for 1 min, in order to retrieve the peptide. Finally, the samples were analyzed by HPLC, based on a calibration curve constructed at the exact same conditions as the samples to be analyzed.
For direct comparison of the stability of the different peptides, the results were normalized and expressed as the percentage of the corresponding initial peptide concentration measured at time point 0, for each peptide and each formulation (solution or liposome). Experiments were carried out in triplicate, and the results are expressed as the mean value ± standard deviation.

Q: What does the source list for `CC[C@H](C)[C@@H]1NC(=O)[C@H](C)NC(=O)[C@H]([C@@H](C)CC)NC(=O)[C@H](CCC(N)=O)NC(=O)[C@H](C)NC(=O)[C@H](CCCNC(=N)N)NC(=O)[C@H](C(C)C)NC(=O)[C@H](CC(C)C)NC(=O)[C@H](CCC(=O)O)NC(=O)[C@H](CCCNC(=N)N)NC(=O)CNC(=O)[C@@H](NC(=O)[C@H](CC(C)C)NC(=O)[C@H](CCCCN)NC(=O)[C@@H](NC(=O)[C@@H](NC(=O)[C@H](CCC(=O)O)NC(=O)[C@H](CCC(=O)O)NC(=O)[C@H](CCSC)NC(=O)[C@H](Cc2c[nH]c3ccccc23)NC(=O)[C@H](CO)NC(=O)[C@@H](N)CC(=O)O)C(C)C)[C@@H](C)CC)CSSC[C@@H]2NC(=O)[C@@H](NC(=O)[C@H](CCCCN)NC(=O)[C@H](CC(N)=O)NC(=O)[C@H](C)NC(=O)[C@H](CC(C)C)NC(=O)[C@H](C)NC(=O)[C@H](CO)NC(=O)[C@H](Cc3ccc(O)cc3)NC(=O)[C@H](CC(C)C)NC(=O)[C@@H]3CCC(=O)N3)CSSC[C@H](NC(=O)CNC(=O)[C@H](C(C)C)NC(=O)[C@H](Cc3c[nH]cn3)NC2=O)C(=O)N[C@@H]([C@@H](C)O)C(=O)N[C@@H](CCCCN)C(=O)N[C@@H](CCCNC(=N)N)C(=O)N[C@@H](CO)C(=O)N[C@@H](CC(C)C)C(=O)N[C@@H](C)C(=O)N[C@@H](CCCNC(=N)N)C(=O)N[C@@H](Cc2ccccc2)C(=O)N[C@H](C(=O)O)CSSC[C@@H](C(=O)NCC(=O)N[C@@H](CC[S+](C)[O-])C(=O)N[C@@H](CO)C(=O)N[C@H](C(=O)N[C@@H](Cc2c[nH]c3ccccc23)C(=O)N[C@@H](CO)C(=O)O)[C@@H](C)O)NC1=O` (some centres unmarked) [O-RLX2, Met (O)^25-human relaxin 2]?
A: peptide remaining after 10 d of incubation in FBS (FBS 80% v/v, 37 °C, 10 d, 58 ± 5.0 μg/mL peptide, HPLC, % of initial concentration, triplicate): all the free O-RLX2 peptide was degraded; half-life (fetal bovine serum (FBS) 80% v/v): 83.5 h
